From patent US20090118194A1, “Measurement of melanocortin peptides and uses thereof” (Auckland UniServices Limited, priority 2002, published 2009)
Entries after “also recorded” stand apart in the source; their conditions may differ.

Legend:
[1] = test system: hypothalamic proteins; assay: Hypothalamic proteins after subcutaneous injection of new-born rats for 14 days; format: in vivo, rat; conditions: hypothalamus, s.c. for 14 days
Protocol: Tables 3 and 4 represent data from a neonatal study, where the two MSH peptides were injected subcutaneously into new-born rats for 14 days, and the changes in hypothalamic proteins assessed with the same method as the above study.
Adult female Wistar rats were housed in plastic cages and kept on a 12-h dark/light cycle. Animals received tap water and rat pellets ad libitum and were mated with males of the same strain. Each litter of new-born Wistar rats was culled to 9 pups per mother.
PBS or freshly prepared peptide solutions made up freshly in PBS containing 0.1% BSA were injected subcutaneously once per day in a volume of 40 μl for 14 days. Animals were injected on day 14 and 1 h later they were euthanised using sodium pentobarbital.

[2] = test system: primary rat osteoblasts; assay: Primary rat osteoblast proliferation assay ([3H]thymidine incorporation, cell number); format: cell-based
From the text: Primary rat osteoblasts were isolated from 20 day fetal rat calvariae. (The use of animals for these studies was approved by the Auckland Animal Ethics Committee.) Calvariae were excised and the frontal and parietal bones, free of suture and periosteal tissue, were collected and sequentially digested using collagenase as previously described (Cornish J, Callon K E, Lin C Q X, Xiao C L, Mulvey T B, Cooper G J S, Reid I R Trifluoroacetate, a contaminant in puritied proteins, inhibits proliferation of osteoblasts and chondrocytes. Amer J Physiol Endocrinol Metab 277: E779-E783, 1999). Primary rat osteoblasts were grown in DMEM supplemented with 10% FCS, 50 U/ml penicillin and 50 μg/ml streptomycin. After 48 hour, the medium was changed to MEM. Confluence was reached within 5-6 days, at which time the cells were subcultured into 10 cm culture plates for RNA preparation or 24 well plates for proliferation assays.
Primary rat osteoblasts were subcultured into 24 well plates at a density of 5×10^4 cells/ml/well in MEM, 5% FCS for 24 hours. Cells were growth arrested in MEM, 0.1% bovine serum albumin (BSA) for 24 hour and then fresh media and experimental compounds were added for a further 24 hours. Cells were pulsed with [^3H]thymidine (0.5 μCi/well) 2 hours before the end of the experimental incubation. The experiment was terminated and both cell numbers and thymidine incorporation were assessed. Cell numbers were analysed by detaching cells from the wells by exposure to trypsin/EDTA (0.05%/0.53 mM) for approximately 5 minutes at 37° C. Counting was performed in a hemocytometer chamber. Results are expressed per well. [^3H]Thymidine incorporation was analysed by washing the cells in MEM followed by the addition of 10% trichloroacetic acid. The precipitate was washed twice with ethnol:ether (3:1) and the wells desiccated at room temperature. The residue was dissolved in 2M KOH at 55° C. for 30 minutes, neutralized with 1M HCl, and an aliquot counted for radioactivity. Results are expressed as dpm per well. Each experiment was performed at least three times using experimental groups consisting of at least six wells.
Data are presented as mean±SEM. The significance of differences between groups was determined using Student's t tests for unpaired data and a 5% significance level. The comparisons to be made in each experiment were specified a priori, so no adjustment for multiple comparisons was necessary. Where several experiments have been shown in one figure, the data are expressed as the ratio of results in treatment groups to those in the control group and the ‘P’ values shown were calculated using the data from the individual experiments, before the data were pooled.

[3] = test system: 3T3 L1 adipocytes; assay: Leptin production in differentiated 3T3 L1 adipocytes (peptide stimulation assay); format: cell-based, murine; conditions: for mean leptin level: one assay; for Leptin Response, Mean: 4 hours, 2 assays combined
Protocol: • 2.1 The objective of this study was to determine the effects of a-MSH and desacetyl a-MSH on leptin and triglyceride production in murine 3T3 L1 adipocytes. • 2.2 Pre-adipocytes were seeded in 6-well plates and 2 days post confluence (Day 2) were differentiated with […] indomethacin+5 ug/mL insulin (described in previous documents). • 2.3 On Day 13 adipocytes were stimulated with 4 doses each of a-MSH and desacetyl a-MSH (or no peptide added) for 4 hours. • 2.4 Medium was removed from the wells and leptin and triglyceride levels measured. • 2.5 Intracytoplasmic lipid accumulation was measured by staining with Oil red O.
• 4.1 Medium=a-MEM+0.5% BSA (100 mL a-MEM+0.5 g BSA) • 4.2 Doses of a-MSH and da-MSH (stocks in −80° C. freezer=1 ug/ul), using MW of a-MSH. • 1 M=1665 g/L=1665 mg/mL • 1 mM=1.665 mg/mL • 1 uM=1.665 ug/mL • 1.665 ug/mL=3.3 ug/2 mL in each well • 1/10 dilution of 1 ug/ul (stock)=0.1 ug/ul. 33 ul=3.3 ug. • Prepare 1/10 dilution of freezer stock (1 ug/ul) to make 0.1 ug/ul, using a-MEM+0.5% BSA as diluent. • Make 3 serial dilutions of 1/10 to add 33 ul to each well in 6-well plate. • Doses are in triplicate wells, so require 3×33=99 ul for each dose.
• 5.1 Assay is performed on Day 14 after initiation of cell differentiation. On day prior to stimulation assay, replace growth medium+insulin with medium prepared in 4.1 (a-MEM+0.5% BSA) and return plates to incubator. • 5.2 On Day of assay prepare peptide solutions as in 4.2 and IBMX as in 4.3. • 5.3 Replace medium with the same medium supplemented with 1 mM IBMX (as in 4.3) and allow cells to equilibrate in incubator for 10 minutes. • 5.4 Add increasing concentrations of peptides (or none), 33 ul per well, swirl gently to mix, and place plates in incubator for 4 hours. • 5.5 At the end of the incubation remove media from wells and store triplicate aliquots in −20° C. freezer for measurement of leptin and triglycerides. • 5.6 Stain adipocytes in wells with Oil Red O as in “Oil Red O Staining of Adipocyte” document. • 5.7 After eluting the stain, remove cells from wells as in 6.0 for measuring total protein.
Leptin Assays Quantikine M kit (R & D Systems Inc, UK # MOB00 Abingdon, Oxon) and DSL kit (DSL #10-24100, Australia PTY Ltd, NSW, Australia) were used. […] The Quantikine M kit is preferred as it is more sensitive and precise.

SYSMEHFRWGKPV [desacetyl-α-MSH, non-acetylated form of α-MSH, obtained from Bachem]
ATP synthase, H+ transporting (p1379), level compared to control [1]: 1.7 fold decrease | RIKEN cDNA0610011D08 (p1381), level compared to control [1]: 3.3 fold increase | cofilin (p1854), level compared to control [1]: 1.9 fold increase | creatine kinase brain (p1079), level compared to control [1]: 1.9 fold increase | creatine kinase brain (p1251), level compared to control [1]: 2.1 fold increase | dihydropyrimidinase-like 2 (p537), level compared to control [1]: 2.5 fold decrease | heat shock protein (p1445), level compared to control [1]: 2.0 fold increase | hypothetical protein XP_112457 (p1936), level compared to control [1]: 2.2 fold increase | prohibitin homologue (p1458), level compared to control [1]: 1.7 fold increase | protein kinase C inhibitor (p1790), level compared to control [1]: 1.8 fold increase | similar to SH3-containing protein SH3GLB2 (p1557), level compared to control [1]: 4.0 fold increase | similar to phosphoglycerate kinase (p1363), level compared to control [1]: 1.6 fold increase | spectrin fragment (p1362), level compared to control [1]: 2.5 fold decrease | stathmin (p1610), level compared to control [1]: 2.6 fold increase | stathmin P*Ser38 (p1588), level compared to control [1]: 1.7 fold increase | triosephosphate isomerase (p1339), level compared to control [1]: 2.1 fold increase | tubulin beta (p1520), level compared to control [1]: 1.6 fold increase | antagonism of α-MSH stimulated [3H] thymidine uptake ([2]; 10^−7 M against α-MSH 10^−8 M and 10^−7 M, growth arrested primary rat osteoblasts): inhibited two doses of α-MSH (10^−8 M and 10^−7 M) from stimulating [^3H] thymidine uptake; also recorded: antagonise α-MSH stimulated stimulation of thymidine incorporation | osteoblast proliferation ([2]; 10^−7 M and 10^−8 M, alone): no significant effect on osteoblast proliferation in two out of three experiments | thymidine incorporation or cell numbers (proliferation) ([2]; growth arrested primary rat osteoblasts, 10^−7 M, alone): did not stimulate thymidine incorporation or cells numbers | effect on leptin production ([3]; 1 nM single peptide): appears to reduce leptin production | mean leptin level ([3]; 1 nM single peptide): 480.4 pg/mL | Leptin Response, Mean ([3]; 1 nM): 95.4 % of control | Leptin Response, Mean ([3]; 10 nM): 96.3 % of control | mean leptin level ([3]; 100 nM single peptide): 528.0 pg/mL | Leptin Response, Mean ([3]; 100 nM): 97.7 % of control | Leptin Response, Mean ([3]; 1000 nM): 109.4 % of control
